Laboratory results: ChEMBL document CHEMBL5131500, “High Plasticity of the Amicetin Biosynthetic Pathway in Streptomyces sp. SHP 22-7 Led to the Discovery of Streptcytosine P and Cytosaminomycins F and G and Facilitated the Production of 12F-Plicacetin” (J Nat Prod, 2022)
In brackets after ≈: the same amount, converted by molar mass.

Key:
Format in all cases: functional
Pseudomonas aeruginosa = experiment: Antibacterial activity against Pseudomonas aeruginosa ATCC 27853 assessed as bacterial growth inhibition incubated over night by two-fold serial dilution method
Candida albicans = experiment: Antifungal activity against Candida albicans Tu01 assessed as fungal growth inhibition incubated for 48 hrs by broth microdilution method
Nakaseomyces glabratus = experiment: Antifungal activity against Candida glabrata Tu04 assessed as fungal growth inhibition incubated for 48 hrs by broth microdilution method
Enterococcus faecium = experiment: Antibacterial activity against Enterococcus faecium BM4147-1 assessed as bacterial growth inhibition incubated over night by two-fold serial dilution method
Staphylococcus aureus [1] = experiment: Antibacterial activity against Staphylococcus aureus ATCC 29213 assessed as bacterial growth inhibition incubated over night by two-fold serial dilution method
Klebsiella pneumoniae = experiment: Antibacterial activity against Klebsiella pneumoniae ATCC 12657 assessed as bacterial growth inhibition incubated over night by two-fold serial dilution method
Klebsiella aerogenes = experiment: Antibacterial activity against Enterobacter aerogenes ATCC 13048 assessed as bacterial growth inhibition incubated over night by two-fold serial dilution method
Acinetobacter baumannii = experiment: Antibacterial activity against Acinetobacter baumannii 09987 assessed as bacterial growth inhibition incubated over night by two-fold serial dilution method
Escherichia coli [2] = experiment: Antibacterial activity against Escherichia coli ATCC 25922 assessed as bacterial growth inhibition incubated over night by two-fold serial dilution method
Bacillus subtilis = experiment: Antibacterial activity against Bacillus subtilis 168 assessed as bacterial growth inhibition incubated over night by two-fold serial dilution method
Staphylococcus aureus [3] = experiment: Antibacterial activity against Staphylococcus aureus NCTC 8325 assessed as bacterial growth inhibition incubated over night by two-fold serial dilution method
[4] = test system: Mycolicibacterium smegmatis; experiment: Antibacterial activity against Mycobacterium smegmatis mc2 155 assessed as bacterial growth inhibition incubated over night by two-fold serial dilution method
HeLa = experiment: Cytotoxicity against human HeLa cells assessed as reduction in cell viability after 24 hrs by resazurin dye based assay
[5] = test system: Mycobacterium tuberculosis; experiment: Antitubercular activity against Mycobacterium tuberculosis H37Rv ATCC 25618 assessed as bacterial growth inhibition incubated for 7 days by resazurin microtiter assay; settings: H37Rv ATCC 25618, 168 h, time 7 day
Escherichia coli [6] = experiment: Antimicrobial activity against Escherichia coli MRE600 assessed as inhibition of translation using luciferin as substrate incubated for 2 hrs by chemiluminescence based cell free assay; settings: MRE600, 2 h

Work on `CC(C)CC(=O)Nc1ccn([C@H]2CC[C@H](O)[C@@H](C)O2)c(=O)n1` yielded an MIC (Pseudomonas aeruginosa) greater than 32 µg/mL, an MIC (Candida albicans) greater than 32 µg/mL and an MIC (Nakaseomyces glabratus) greater than 32 µg/mL. It also gave an MIC (Enterococcus faecium) greater than 32 µg/mL, an MIC (Staphylococcus aureus [1]) greater than 32 µg/mL and an MIC (Klebsiella pneumoniae) greater than 32 µg/mL. For the same compound, the MIC (Klebsiella aerogenes) was greater than 32 µg/mL, the MIC (Acinetobacter baumannii) was greater than 32 µg/mL and the MIC (Escherichia coli [2]) was greater than 32 µg/mL. It also gave an MIC (Bacillus subtilis) greater than 32 µg/mL, an MIC (Staphylococcus aureus [3]) greater than 32 µg/mL and an MIC [4] greater than 32 µg/mL. It also gave an IC50 (HeLa) greater than 64 µg/mL.

`CC(C)=CC(=O)Nc1ccn([C@H]2CC[C@H](O)[C@@H](C)O2)c(=O)n1` was tested, and the MIC (Pseudomonas aeruginosa) was greater than 32 µg/mL, the MIC (Candida albicans) was greater than 32 µg/mL and the MIC (Nakaseomyces glabratus) was greater than 32 µg/mL. The MIC (Enterococcus faecium) was greater than 32 µg/mL, the MIC (Staphylococcus aureus [1]) was greater than 32 µg/mL and the MIC (Klebsiella pneumoniae) was greater than 32 µg/mL. It also gave an MIC (Klebsiella aerogenes) greater than 32 µg/mL, an MIC (Acinetobacter baumannii) greater than 32 µg/mL and an MIC (Escherichia coli [2]) greater than 32 µg/mL. The MIC (Bacillus subtilis) was greater than 32 µg/mL, the MIC (Staphylococcus aureus [3]) was greater than 32 µg/mL and the MIC [4] was greater than 32 µg/mL. It also gave an IC50 (HeLa) greater than 64 µg/mL.

`C[C@H]1O[C@H](O[C@H]2CC[C@H](n3ccc(NC(=O)c4ccc(N)cc4)nc3=O)O[C@@H]2C)[C@H](O)[C@@H](O)[C@@H]1N(C)C` was tested, and the MIC (Pseudomonas aeruginosa) was greater than 32 µg/mL, the MIC (Candida albicans) was greater than 32 µg/mL and the MIC (Nakaseomyces glabratus) was greater than 32 µg/mL. It also gave an MIC (Enterococcus faecium) greater than 32 µg/mL, an MIC (Staphylococcus aureus [1]) greater than 32 µg/mL and an MIC (Klebsiella pneumoniae) greater than 32 µg/mL. It also gave an MIC (Klebsiella aerogenes) greater than 32 µg/mL, an MIC (Acinetobacter baumannii) greater than 32 µg/mL and an MIC (Escherichia coli [2]) greater than 32 µg/mL. For the same compound, the MIC (Bacillus subtilis) was 32 µg/mL (≈ 61.8 µM), the MIC (Staphylococcus aureus [3]) was greater than 32 µg/mL and the MIC [4] was 2 µg/mL (≈ 3.86 µM). It also gave an MIC95 [5] of 16 µM (≈ 8.28 µg/mL), an IC50 (HeLa) of 16 µg/mL (≈ 30.9 µM) and an IC50 (Escherichia coli [6]) of 12 µg/mL (≈ 23.2 µM).

With `CC(=O)C(C)Nc1ccc(C(=O)Nc2ccn([C@H]3CC[C@H](O[C@H]4O[C@H](C)[C@@H](N(C)C)[C@H](O)[C@H]4O)[C@@H](C)O3)c(=O)n2)cc1` (stereo not given in full) the MIC (Pseudomonas aeruginosa) was greater than 32 µg/mL, the MIC (Candida albicans) was greater than 32 µg/mL and the MIC (Nakaseomyces glabratus) was greater than 32 µg/mL. The MIC (Enterococcus faecium) was greater than 32 µg/mL, the MIC (Staphylococcus aureus [1]) was greater than 32 µg/mL and the MIC (Klebsiella pneumoniae) was greater than 32 µg/mL. The MIC (Klebsiella aerogenes) was greater than 32 µg/mL, the MIC (Acinetobacter baumannii) was greater than 32 µg/mL and the MIC (Escherichia coli [2]) was greater than 32 µg/mL. It also gave an MIC (Bacillus subtilis) greater than 32 µg/mL, an MIC (Staphylococcus aureus [3]) greater than 32 µg/mL and an MIC [4] of 2 µg/mL (≈ 3.4 µM). It also gave an MIC95 [5] of 32 µM (≈ 18.8 µg/mL), an IC50 (HeLa) of 16 µg/mL (≈ 27.2 µM) and an IC50 (Escherichia coli [6]) of 13 µg/mL (≈ 22.1 µM).

In the case of `CC(C)=CC(=O)Nc1ccn([C@H]2CC[C@H](O[C@H]3O[C@H](C)[C@@H](N(C)C)[C@H](O)[C@H]3O)[C@@H](C)O2)c(=O)n1`, the MIC (Pseudomonas aeruginosa) is reported as greater than 32 µg/mL, the MIC (Candida albicans) is reported as greater than 32 µg/mL and the MIC (Nakaseomyces glabratus) is reported as greater than 32 µg/mL. For the same compound, the MIC (Enterococcus faecium) was greater than 32 µg/mL, the MIC (Staphylococcus aureus [1]) was greater than 32 µg/mL and the MIC (Klebsiella pneumoniae) was greater than 32 µg/mL. The MIC (Klebsiella aerogenes) was greater than 32 µg/mL, the MIC (Acinetobacter baumannii) was greater than 32 µg/mL and the MIC (Escherichia coli [2]) was greater than 32 µg/mL. It also gave an MIC (Bacillus subtilis) of 32 µg/mL (≈ 66.6 µM), an MIC (Staphylococcus aureus [3]) greater than 32 µg/mL and an MIC [4] of 4 µg/mL (≈ 8.32 µM). For the same compound, the MIC95 [5] was 32 µM (≈ 15.4 µg/mL), the IC50 (HeLa) was 2 µg/mL (≈ 4.16 µM) and the IC50 (Escherichia coli [6]) was 1.6 µg/mL (≈ 3.33 µM).

`CC[C@H](C)C(=O)Nc1ccn([C@H]2CC[C@H](O)[C@@H](C)O2)c(=O)n1` gave an MIC (Pseudomonas aeruginosa) greater than 32 µg/mL, an MIC (Candida albicans) greater than 32 µg/mL and an MIC (Nakaseomyces glabratus) greater than 32 µg/mL. For the same compound, the MIC (Enterococcus faecium) was greater than 32 µg/mL, the MIC (Staphylococcus aureus [1]) was greater than 32 µg/mL and the MIC (Klebsiella pneumoniae) was greater than 32 µg/mL. It also gave an MIC (Klebsiella aerogenes) greater than 32 µg/mL, an MIC (Acinetobacter baumannii) greater than 32 µg/mL and an MIC (Escherichia coli [2]) greater than 32 µg/mL. It also gave an MIC (Bacillus subtilis) greater than 32 µg/mL, an MIC (Staphylococcus aureus [3]) greater than 32 µg/mL and an MIC [4] greater than 32 µg/mL. The IC50 (HeLa) was greater than 64 µg/mL.

Work on `C[C@H]1O[C@H](O[C@H]2CC[C@H](n3ccc(NC(=O)c4ccc(N)c(F)c4)nc3=O)O[C@@H]2C)[C@H](O)[C@@H](O)[C@@H]1N(C)C` yielded an MIC (Pseudomonas aeruginosa) greater than 32 µg/mL, an MIC (Candida albicans) greater than 32 µg/mL and an MIC (Nakaseomyces glabratus) greater than 32 µg/mL. It also gave an MIC (Enterococcus faecium) greater than 32 µg/mL, an MIC (Staphylococcus aureus [1]) greater than 32 µg/mL and an MIC (Klebsiella pneumoniae) greater than 32 µg/mL. The MIC (Klebsiella aerogenes) was greater than 32 µg/mL, the MIC (Acinetobacter baumannii) was greater than 32 µg/mL and the MIC (Escherichia coli [2]) was greater than 32 µg/mL. It also gave an MIC (Bacillus subtilis) greater than 32 µg/mL, an MIC (Staphylococcus aureus [3]) greater than 32 µg/mL and an IC50 (HeLa) greater than 64 µg/mL.

`CS/C=C/C(=O)Nc1ccn([C@H]2CC[C@H](O[C@H]3O[C@H](C)[C@@H](N(C)C)[C@H](O)[C@H]3O)[C@@H](C)O2)c(=O)n1` gave an MIC (Pseudomonas aeruginosa) greater than 32 µg/mL, an MIC (Candida albicans) greater than 32 µg/mL and an MIC (Nakaseomyces glabratus) greater than 32 µg/mL. It also gave an MIC (Enterococcus faecium) greater than 32 µg/mL, an MIC (Staphylococcus aureus [1]) of 16 µg/mL (≈ 32.1 µM) and an MIC (Klebsiella pneumoniae) greater than 32 µg/mL. It also gave an MIC (Klebsiella aerogenes) greater than 32 µg/mL, an MIC (Acinetobacter baumannii) greater than 32 µg/mL and an MIC (Escherichia coli [2]) greater than 32 µg/mL. The MIC (Bacillus subtilis) was 8 µg/mL (≈ 16 µM), the MIC (Staphylococcus aureus [3]) was 16 µg/mL (≈ 32.1 µM) and the MIC [4] was 4 µg/mL (≈ 8.02 µM). It also gave an MIC95 [5] of 8 µM (≈ 3.99 µg/mL), an IC50 (HeLa) of 1 µg/mL (≈ 2.01 µM) and an IC50 (Escherichia coli [6]) of 1 µg/mL (≈ 2.01 µM).

In the case of `CC[C@H](C)CCC(=O)Nc1ccn([C@H]2CC[C@H](O[C@H]3O[C@H](C)[C@@H](N(C)C)[C@H](O)[C@H]3O)[C@@H](C)O2)c(=O)n1`, the MIC (Pseudomonas aeruginosa) is reported as greater than 32 µg/mL, the MIC (Candida albicans) is reported as greater than 32 µg/mL and the MIC (Nakaseomyces glabratus) is reported as greater than 32 µg/mL. It also gave an MIC (Enterococcus faecium) greater than 32 µg/mL, an MIC (Staphylococcus aureus [1]) greater than 32 µg/mL and an MIC (Klebsiella pneumoniae) greater than 32 µg/mL. It also gave an MIC (Klebsiella aerogenes) greater than 32 µg/mL, an MIC (Acinetobacter baumannii) greater than 32 µg/mL and an MIC (Escherichia coli [2]) greater than 32 µg/mL. For the same compound, the MIC (Bacillus subtilis) was greater than 32 µg/mL, the MIC (Staphylococcus aureus [3]) was greater than 32 µg/mL and the MIC [4] was 16 µg/mL (≈ 31.3 µM). The IC50 (HeLa) was greater than 64 µg/mL and the IC50 (Escherichia coli [6]) was 9.5 µg/mL (≈ 18.6 µM).
